The assay has as its target T1, Prostaglandin G/H synthase 2 (Homo sapiens, UniProt P35354).
T1 sequence (P35354 whole entry): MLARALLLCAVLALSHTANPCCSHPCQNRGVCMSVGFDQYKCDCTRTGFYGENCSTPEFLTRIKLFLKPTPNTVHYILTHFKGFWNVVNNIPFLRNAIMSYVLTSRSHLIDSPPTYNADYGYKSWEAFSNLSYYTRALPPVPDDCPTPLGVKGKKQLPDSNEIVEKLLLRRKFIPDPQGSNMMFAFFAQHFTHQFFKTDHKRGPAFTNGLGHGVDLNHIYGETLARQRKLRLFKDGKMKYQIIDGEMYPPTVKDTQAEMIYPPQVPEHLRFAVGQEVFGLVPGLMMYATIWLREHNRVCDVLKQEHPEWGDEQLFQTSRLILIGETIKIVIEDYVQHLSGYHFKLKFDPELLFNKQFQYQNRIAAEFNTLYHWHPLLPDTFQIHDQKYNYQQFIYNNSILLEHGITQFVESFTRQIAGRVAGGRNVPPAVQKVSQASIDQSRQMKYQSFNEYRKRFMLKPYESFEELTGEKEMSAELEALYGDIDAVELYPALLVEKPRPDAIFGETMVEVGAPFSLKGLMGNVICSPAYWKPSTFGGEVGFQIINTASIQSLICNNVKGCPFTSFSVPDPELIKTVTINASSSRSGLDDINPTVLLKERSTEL
Description: Inhibitory concentration against COX-2 upon incubation for 15 minutes at 37 degree C.

Broadly, the IC50 is the concentration at which inhibition is half-maximal. The low end stands for greater potency, the high end for weaker potency. Molecule `COc1ccccc1-n1c(-c2ccc(S(N)(=O)=O)cc2)nc2ccccc21` yielded an IC50 of 8 µM.
Regarding `NS(=O)(=O)c1ccc(-c2nc3ccccc3n2-c2ccc(Cl)cc2)cc1`, the IC50 stood at 0.2 µM.

The record behind these values is ChEMBL document CHEMBL1140379, “Extraction and visualization of potential pharmacophore points using support vector machines: application to ligand-based virtual screening for COX-2 inhibitors” (J Med Chem, 2005).
